Source: patent publication US20230085307A1, “PYRIDAZINONE COMPOUND AND HERBICIDE” (NISSAN CHEMICAL CORPORATION, priority 2019, published 2023)
Values belong to the compound of their own block, whether it stands above or below them.

Columns and labels:
[1] = tested on: Japanese bulrush; assay: Test Example 2: herbicidal activity, application during weed generation under submerged conditions (Table 17, symbol B); type: in vivo, Japanese bulrush (Schoenoplectus juncoides); settings: application during weed generation, submerged conditions
In short: (§1)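 Herbicide emulsion, diluted with water to the chosen amount, is applied onto 4 cm floodwater over alluvial soil where the weeds were co-sown and raised at 25–30° C. Application timing: 1–2 leaves. Assessment: three weeks afterwards.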

[2] = tested on: wild oat; assay: Test Example 5: herbicidal effect by foliage application, plastic box (Table 20, symbol I); type: in vivo, wild oat (Avena fatua); settings: foliage application, three weeks after application
In short: (§2)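 Plants were sown into sterilized diluvial soil under about 1.5 cm cover and kept in a greenhouse at 25° C. to 30° C. Fourteen days on, foliage received an even spray of the diluted emulsion. Herbicidal or crop effect was judged three weeks afterwards.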

[3] = tested on: chickweed; assay: Test Example 5: herbicidal effect by foliage application, plastic box (Table 20, symbol P); type: in vivo, common chickweed (Stellaria media); settings: foliage application, three weeks after application
In short: as §2

[4] = tested on: chickweed; assay: Test Example 4: herbicidal effect by soil treatment (Table 19, symbol P); type: in vivo, common chickweed (Stellaria media)
In short: (§3)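 Pre-emergence style soil spray: seeds under ~1.5 cm sterilized diluvial soil received a uniform coat of emulsion diluted to the predetermined herbicide amount. Greenhouse 25–30° C; readout at week three on previously defined criteria.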

[5] = tested on: false cleavers; assay: Test Example 4: herbicidal effect by soil treatment (Table 19, symbol Q); type: in vivo, false cleavers (Galium spurium); settings: amount of applied herbicide 214 g/ha
In short: as §3

[6] = tested on: Italian ryegrass; assay: Test Example 4: herbicidal effect by soil treatment (Table 19, symbol K); type: in vivo, Italian ryegrass (Lolium multiflorum)
In short: as §3

[7] = tested on: oval-leafed pondweed; assay: Test Example 2: herbicidal activity, application during weed generation under submerged conditions (Table 17, symbol C); type: in vivo, oval-leafed pondweed (Monochoria vaginalis); settings: application during weed generation, submerged conditions
In short: as §1

[8] = tested on: lambsquarters; assay: Test Example 4: herbicidal effect by soil treatment (Table 19, symbol O); type: in vivo, lambsquarters (Chenopodium album)
In short: as §3

[9] = tested on: southern crabgrass; assay: Test Example 5: herbicidal effect by foliage application, plastic box (Table 20, symbol F); type: in vivo, southern crabgrass (Digitaria ciliaris); settings: foliage application, three weeks after application
In short: as §2

[10] = tested on: oval-leafed pondweed; assay: Test Example 1: herbicidal activity, application before weed generation under submerged conditions (Table 16, symbol C); type: in vivo, oval-leafed pondweed (Monochoria vaginalis)
In short: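 Emulsion formulation, water-diluted to set dose, was put onto the flooded surface (4 cm depth, alluvial soil) the same day weeds were sown and 2.5-leaf rice transplanted. After 3 weeks at 25-30 °C under glass, each species was rated 0 (≤5% kill) to 5 (≥90% kill).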

[11] = tested on: wheat; assay: Test Example 4: effect on crop by soil treatment (Table 19, symbol e); type: in vivo
In short: as §3

[12] = tested on: persian speedwell; assay: Test Example 4: herbicidal effect by soil treatment (Table 19, symbol R); type: in vivo, Persian speedwell (Veronica persica)
In short: as §3

[13] = tested on: false cleavers; assay: Test Example 5: herbicidal effect by foliage application, plastic box (Table 20, symbol Q); type: in vivo, false cleavers (Galium spurium); settings: foliage application, 214 g/ha, three weeks after application
In short: as §2

[14] = tested on: beet; assay: Test Example 5: effect on crop by foliage application, plastic box (Table 20, symbol f); type: in vivo; settings: three weeks after application
In short: as §2

[15] = tested on: corn; assay: Test Example 5: effect on crop by foliage application, plastic box (Table 20, symbol c); type: in vivo; settings: three weeks after application
In short: as §2

[16] = tested on: late watergrass; assay: Test Example 2: herbicidal activity, application during weed generation under submerged conditions (Table 17, symbol A); type: in vivo, late watergrass (Echinochloa oryzicola); settings: application during weed generation, submerged conditions
In short: as §1

[17] = tested on: rapeseed; assay: Test Example 4: effect on crop by soil treatment (Table 19, symbol g); type: in vivo
In short: as §3

[18] = tested on: barnyard grass; assay: Test Example 4: herbicidal effect by soil treatment (Table 19, symbol H); type: in vivo, barnyard grass (Echinochloa crus-galli)
In short: as §3

[19] = tested on: wild oat; assay: Test Example 4: herbicidal effect by soil treatment (Table 19, symbol I); type: in vivo, wild oat (Avena fatua)
In short: as §3

[20] = tested on: velvetleaf; assay: Test Example 4: herbicidal effect by soil treatment (Table 19, symbol M); type: in vivo, velvetleaf (Abutilon theophrasti)
In short: as §3

[21] = tested on: windgrass; assay: Test Example 4: herbicidal effect by soil treatment (Table 19, symbol L); type: in vivo, windgrass (Apera spica-venti)
In short: as §3

[22] = amount of applied herbicide 214 g/ha
[23] = amount of applied herbicide 320 g/ha

- melting point: 243 to 244 °C
SMILES: COc1ccc2c(-c3c(O)c(C)nn(C)c3=O)c(-c3ccccc3OC)sc2c1 [Compound No. 3-065, 5-hydroxy-4-(6-methoxy-2-(2-methoxyphenyl)benzo[b]thiophen-3-yl)-2,6-dimethylpyridazin-3(2H)-one]
- herbicidal effect rating, B: Japanese bulrush ([1]; AAH 214 g/ha): 1 (Herbicidal rate of 5% or more and less than 20%)
- I: wild oat, herbicidal effect grade ([2]; 214 g/ha): 4 (Herbicidal rate of 70% or more and less than 90%)
- P: chickweed, herbicidal effect grade ([3]; 214 g/ha): 5 (Herbicidal rate of 90% or more (almost completely withered))
- P: chickweed, herbicidal effect grade [4, 22]: 5 (Herbicidal rate of 90% or more (almost completely withered))
- Q: false cleavers, herbicidal effect grade [5]: 4 (Herbicidal rate of 70% or more and less than 90%)
- K: Italian ryegrass, herbicidal effect grade [6, 22]: 3 (Herbicidal rate of 40% or more and less than 70%)
- herbicidal effect rating, C: oval-leafed pondweed ([7]; AAH 214 g/ha): 3 (Herbicidal rate of 40% or more and less than 70%)
- O: lambsquarters, herbicidal effect grade [8, 22]: 4 (Herbicidal rate of 70% or more and less than 90%)
- F: southern crabgrass, herbicidal effect grade ([9]; 214 g/ha): 4 (Herbicidal rate of 70% or more and less than 90%)
- Herbicidal effect, C: oval-leafed pondweed [10, 22]: 3 (Herbicidal rate of 40% or more and less than 70%)
- e: wheat, effect on crop grade [11, 22]: 0 (Herbicidal rate of 5% or less (almost no effect))
- R: persian speedwell, herbicidal effect grade [12, 22]: 5 (Herbicidal rate of 90% or more (almost completely withered))
- Q: false cleavers, herbicidal effect grade [13]: 5 (Herbicidal rate of 90% or more (almost completely withered))
- f: beet, effect on crop grade ([14]; 214 g/ha): 5 (Herbicidal rate of 90% or more (almost completely withered))
- c: corn, effect on crop grade ([15]; 214 g/ha): 0 (Herbicidal rate of 5% or less (almost no effect))
- herbicidal effect rating, A: late watergrass ([16]; AAH 214 g/ha): 0 (Herbicidal rate of 5% or less (almost no effect))
- g: rapeseed, effect on crop grade [17, 22]: 5 (Herbicidal rate of 90% or more (almost completely withered))
- H: barnyard grass, herbicidal effect grade [18, 22]: 5 (Herbicidal rate of 90% or more (almost completely withered))
- I: wild oat, herbicidal effect grade [19, 22]: 2 (Herbicidal rate of 20% or more and less than 40%)
- M: velvetleaf, herbicidal effect grade [20, 22]: 0 (Herbicidal rate of 5% or less (almost no effect))
- L: windgrass, herbicidal effect grade [21, 22]: 3 (Herbicidal rate of 40% or more and less than 70%)

- melting point: 209 to 211 °C
SMILES: COc1ccc2c(-c3c(O)c(Cl)nn(C)c3=O)c(-c3ccccc3OC)sc2c1 [Compound No. 3-088, 6-chloro-5-hydroxy-4-(6-methoxy-2-(2-methoxyphenyl)benzo[b]thiophen-3-yl)-2-methylpyridazin-3(2H)-one]
- herbicidal effect rating, B: Japanese bulrush ([1]; AAH 320 g/ha): 3 (Herbicidal rate of 40% or more and less than 70%)
- I: wild oat, herbicidal effect grade ([2]; 320 g/ha): 3 (Herbicidal rate of 40% or more and less than 70%)
- P: chickweed, herbicidal effect grade ([3]; 320 g/ha): 5 (Herbicidal rate of 90% or more (almost completely withered))
- P: chickweed, herbicidal effect grade [4, 23]: 5 (Herbicidal rate of 90% or more (almost completely withered))
- K: Italian ryegrass, herbicidal effect grade [6, 23]: 0 (Herbicidal rate of 5% or less (almost no effect))
- herbicidal effect rating, C: oval-leafed pondweed ([7]; AAH 320 g/ha): 3 (Herbicidal rate of 40% or more and less than 70%)
- O: lambsquarters, herbicidal effect grade [8, 23]: 5 (Herbicidal rate of 90% or more (almost completely withered))
- F: southern crabgrass, herbicidal effect grade ([9]; 320 g/ha): 0 (Herbicidal rate of 5% or less (almost no effect))
- Herbicidal effect, C: oval-leafed pondweed [10, 23]: 5 (Herbicidal rate of 90% or more (almost completely withered))
- e: wheat, effect on crop grade [11, 23]: 0 (Herbicidal rate of 5% or less (almost no effect))
- R: persian speedwell, herbicidal effect grade [12, 23]: 4 (Herbicidal rate of 70% or more and less than 90%)
- f: beet, effect on crop grade ([14]; 320 g/ha): 5 (Herbicidal rate of 90% or more (almost completely withered))
- c: corn, effect on crop grade ([15]; 320 g/ha): 0 (Herbicidal rate of 5% or less (almost no effect))
- herbicidal effect rating, A: late watergrass ([16]; AAH 320 g/ha): 3 (Herbicidal rate of 40% or more and less than 70%)
- g: rapeseed, effect on crop grade [17, 23]: 5 (Herbicidal rate of 90% or more (almost completely withered))
- H: barnyard grass, herbicidal effect grade [18, 23]: 5 (Herbicidal rate of 90% or more (almost completely withered))
- I: wild oat, herbicidal effect grade [19, 23]: 0 (Herbicidal rate of 5% or less (almost no effect))
- M: velvetleaf, herbicidal effect grade [20, 23]: 5 (Herbicidal rate of 90% or more (almost completely withered))
- L: windgrass, herbicidal effect grade [21, 23]: 0 (Herbicidal rate of 5% or less (almost no effect))

- melting point: 216 to 218 °C
SMILES: COc1ccccc1-c1sc2cc(OCC(F)(F)F)ccc2c1-c1c(O)c(C)nn(C)c1=O [Compound No. 3-116, 5-hydroxy-4-(2-(2-methoxyphenyl)-6-(2,2,2-trifluoroethoxy)benzo[b]thiophen-3-yl)-2,6-di methylpyridazin-3 (2H)-one]
- herbicidal effect rating, B: Japanese bulrush ([1]; AAH 320 g/ha): 3 (Herbicidal rate of 40% or more and less than 70%)
- I: wild oat, herbicidal effect grade ([2]; 320 g/ha): 5 (Herbicidal rate of 90% or more (almost completely withered))
- P: chickweed, herbicidal effect grade ([3]; 320 g/ha): 5 (Herbicidal rate of 90% or more (almost completely withered))
- P: chickweed, herbicidal effect grade [4, 23]: 4 (Herbicidal rate of 70% or more and less than 90%)
- K: Italian ryegrass, herbicidal effect grade [6, 23]: 5 (Herbicidal rate of 90% or more (almost completely withered))
- herbicidal effect rating, C: oval-leafed pondweed ([7]; AAH 320 g/ha): 4 (Herbicidal rate of 70% or more and less than 90%)
- O: lambsquarters, herbicidal effect grade [8, 23]: 5 (Herbicidal rate of 90% or more (almost completely withered))
- F: southern crabgrass, herbicidal effect grade ([9]; 320 g/ha): 5 (Herbicidal rate of 90% or more (almost completely withered))
- Herbicidal effect, C: oval-leafed pondweed [10, 23]: 5 (Herbicidal rate of 90% or more (almost completely withered))
- e: wheat, effect on crop grade [11, 23]: 1 (Herbicidal rate of 5% or more and less than 20%)
- R: persian speedwell, herbicidal effect grade [12, 23]: 5 (Herbicidal rate of 90% or more (almost completely withered))
- f: beet, effect on crop grade ([14]; 320 g/ha): 5 (Herbicidal rate of 90% or more (almost completely withered))
- c: corn, effect on crop grade ([15]; 320 g/ha): 0 (Herbicidal rate of 5% or less (almost no effect))
- herbicidal effect rating, A: late watergrass ([16]; AAH 320 g/ha): 4 (Herbicidal rate of 70% or more and less than 90%)
- g: rapeseed, effect on crop grade [17, 23]: 5 (Herbicidal rate of 90% or more (almost completely withered))
- H: barnyard grass, herbicidal effect grade [18, 23]: 5 (Herbicidal rate of 90% or more (almost completely withered))
- I: wild oat, herbicidal effect grade [19, 23]: 3 (Herbicidal rate of 40% or more and less than 70%)
- M: velvetleaf, herbicidal effect grade [20, 23]: 4 (Herbicidal rate of 70% or more and less than 90%)
- L: windgrass, herbicidal effect grade [21, 23]: 4 (Herbicidal rate of 70% or more and less than 90%)
